In paper PMC9103414 (Journal of pharmacological and toxicological methods, 2022):
Structures can show the parent of a compound that is named as a salt. Where two headings read alike, the source gives them in different places. Marks after values point to notes of the source that are not given here.

Assays:
hiPSC-neurons [1] = conditions: for Neuronal Viability (percentage of live neuronal nuclei), reduction vs DMSO / Neuronal Viability, change vs DMSO: Fig. 1B; for Total Neurite Length (per cm^2 image area), reduction vs DMSO: Fig. 1C; for Neuronal Viability, reduction vs DMSO: Fig. 2D
hiPSC-neurons [2] = experiment: Calcium KIC assay; assay type: cell-based, human; conditions: each ARV at 10 μM, 7 days; for Calcium transient activity compared to DMSO (traces): Fig. 5, Fig. S1; for Percent active hiPSC-neurons, reduction vs DMSO: Fig. 6D; for Number of active neurons with detectable increases in calcium fluorescence: six wells per condition, Fig. 5 (DMSO: 1034 cells)
[3] = cited from earlier work; for Plasma concentrations reach steady state by day: daily dosage, ref Min, et al.; for Cmax: read-out: Plasma Cmax, ref Food and Drug Administration New Drug Applications for each antiretroviral
hiPSC-neurons [4] = experiment: HCA of synapses; assay type: cell-based, human
[5] = tested on: primary embryonic rat neurons; conditions: ref Stern, et al., 2018, cited from earlier work; for Number of MAP2+ neurons: 10 μM
hNPCs [6] = experiment: Microscopic Imaging of Epigenetic Landscapes; assay type: cell-based, human; conditions: for Samples classified correctly by discriminant analysis: H3K27me3/H3K27ac and H3K9me3/H3K4me1 confusion matrices, Fig. 7D, E
hNPCs [7] = experiment: hNPC viability; assay type: cell-based, human; conditions: Fig. 7A
murine NPCs = conditions: ref Demir & Laywell, 2015; P. Xu, et al., 2017; cited from earlier work
hiPSC-microglia = conditions: cited from earlier work
[8] = lower concentrations (0.1, 1 μM), 7 days
[9] = 25 μM (inhibiting myosin activity)

Molecule: C[C@@H]1CCO[C@H]2Cn3cc(C(=O)NCc4ccc(F)cc4F)c(=O)c(O)c3C(=O)N12 [DTG, dolutegravir]
- Neuronal Viability (percentage of live neuronal nuclei), reduction vs DMSO (hiPSC-neurons [1]; 10 μM, 7 days): 30%
- Total Neurite Length (per cm^2 image area), reduction vs DMSO (hiPSC-neurons [1]; 10 μM, 7 days): 20%
- Neurite Length per Neuron, increase vs DMSO (hiPSC-neurons [1]; 10 μM, 7 days, Fig. 1D): 20%
- Total Neurite Length, percent difference between ARV treatment and DMSO control (hiPSC-neurons [1]; each ARV at 10 μM, 7 days): −14(NS) percent
- Neuronal Viability, reduction vs DMSO (hiPSC-neurons [1]; each ARV at 10 μM, 7 days): 20%
- Event Frequency, percent difference between ARV treatment and DMSO control (hiPSC-neurons [2]): −10(NS) percent
- Mean Peak Amplitude, percent difference between ARV treatment and DMSO control (hiPSC-neurons [2]): −35(NS) percent
- Percent Active, percent difference between ARV treatment and DMSO control (hiPSC-neurons [2]): −30 ^* percent
- Calcium transient activity compared to DMSO (traces) (hiPSC-neurons [2]): less calcium transient activity compared to DMSO
- Percent active hiPSC-neurons, reduction vs DMSO (hiPSC-neurons [2]): 30%
- Number of active neurons with detectable increases in calcium fluorescence (hiPSC-neurons [2]): 716 cells
- Plasma concentrations reach steady state by day ([3]; healthy volunteers, 2010): ≤ 5 days
- Plasma concentrations reach steady state by day ([3]; people with HIV, 2011): ≤ 7 days
- Cmax [3]: 8 µM
- Synapses/Neurite Length, reduction vs DMSO (hiPSC-neurons [4]; 0.1 μM, 7 days, Fig. 3C): 20%
- Synapse Density, reduction vs DMSO (hiPSC-neurons [4]; 1 μM, 7 days, Fig. 3B): 30%
- Synapses/Neurite Length, reduction vs DMSO (hiPSC-neurons [4]; 1 μM, 7 days, Fig. 3C): 30%
- Synapses/Neurite Length, reduction vs DMSO (hiPSC-neurons [4]; 10 μM, 7 days, Fig. 3C): no effect
- Synapse Density, percent difference between ARV treatment and DMSO control (hiPSC-neurons [4]; each ARV at 10 μM, 7 days): −10(NS) percent

Molecule: COc1cc2c(cc1Cc1cccc(Cl)c1F)c(=O)c(C(=O)O)cn2[C@H](CO)C(C)C [EVG, elvitegravir]
- Number of MAP2+ neurons ([5]; four days): significantly reduced the number of MAP2+ neurons
- Number of MAP2+ neurons ([5]; two days): not two days
- Neurotoxicity ([5]; 0.1 and 1 μM): not neurotoxic
- Neuronal Viability (percentage of live neuronal nuclei), reduction vs DMSO (hiPSC-neurons [1]; 10 μM, 7 days): 65%
- Total Neurite Length (per cm^2 image area), reduction vs DMSO (hiPSC-neurons [1]; 10 μM, 7 days): 80%
- Neurite Length per Neuron, lower than DMSO (hiPSC-neurons [1]; 10 μM, 7 days, Fig. 1D): 50%
- Total Neurite Length, percent difference between ARV treatment and DMSO control (hiPSC-neurons [1]; each ARV at 10 μM, 7 days): −85 ^*** percent
- Neuronal Viability, reduction vs DMSO (hiPSC-neurons [1]; each ARV at 10 μM, 7 days): 80%
- Total Neurite Length, reduction vs DMSO (hiPSC-neurons [1]; each ARV at 10 μM, 7 days, Fig. 2E): 85%
- Neuronal Viability, change vs DMSO (hiPSC-neurons [1]; [8]): did not observe changes
- Event Frequency, percent difference between ARV treatment and DMSO control (hiPSC-neurons [2]): −40 ^** percent
- Mean Peak Amplitude, percent difference between ARV treatment and DMSO control (hiPSC-neurons [2]): −55 ^** percent
- Percent Active, percent difference between ARV treatment and DMSO control (hiPSC-neurons [2]): −90 ^*** percent
- Calcium transient activity compared to DMSO (traces) (hiPSC-neurons [2]): virtually inactive
- Percent active hiPSC-neurons, reduction vs DMSO (hiPSC-neurons [2]): 90%
- Calcium transient event frequency, reduction vs DMSO (hiPSC-neurons [2]; Fig. 6E): 40%
- Calcium transient mean peak amplitude, reduction vs DMSO (hiPSC-neurons [2]; Fig. 6F): 55%
- Number of active neurons with detectable increases in calcium fluorescence (hiPSC-neurons [2]): 31 cells
- Synapse Density (synapses per cm^2 imaging area), reduction vs DMSO (hiPSC-neurons [4]; 0.1 μM, 7 days, Fig. 3B): 20%
- Synapses/Neurite Length, reduction vs DMSO (hiPSC-neurons [4]; 0.1 μM, 7 days, Fig. 3C): 25%
- Synapses/Neurite Length, reduction vs DMSO (hiPSC-neurons [4]; 1 μM, 7 days, Fig. 3C): no effect
- Synapse Density, reduction vs DMSO (hiPSC-neurons [4]; 10 μM, 7 days, Fig. 3B): 75%
- Synapses/Neurite Length, increase vs DMSO (hiPSC-neurons [4]; 10 μM, 7 days, Fig. 3C): 20%
- Synapse Density, percent difference between ARV treatment and DMSO control (hiPSC-neurons [4]; each ARV at 10 μM, 7 days): −90 ^*** percent
- Synapse Density, reduction vs DMSO (hiPSC-neurons [4]; each ARV at 10 μM, 7 days, Fig. 4C): 90%

Molecule: Nc1nc(=O)n([C@@H]2CS[C@H](CO)O2)cc1F [FTC, emtricitabine]
- Neuronal Viability, change vs DMSO (hiPSC-neurons [1]; any tested concentration (0.1, 1, 10 μM), 7 days): did not observe changes
- Total Neurite Length, percent difference between ARV treatment and DMSO control (hiPSC-neurons [1]; each ARV at 10 μM, 7 days): −6(NS) percent
- Mean Peak Amplitude, percent difference between ARV treatment and DMSO control (hiPSC-neurons [2]): −10(NS) percent
- Number of active neurons with detectable increases in calcium fluorescence (hiPSC-neurons [2]): 1003 cells
- Cmax [3]: 7 µM
- Synapses/Neurite Length, reduction vs DMSO (hiPSC-neurons [4]; 0.1 μM, 7 days, Fig. 3C): 20%
- Synapse Density, reduction vs DMSO (hiPSC-neurons [4]; 1 μM, 7 days, Fig. 3B): 20%
- Synapses/Neurite Length, reduction vs DMSO (hiPSC-neurons [4]; 1 μM, 7 days, Fig. 3C): 20%
- Synapse Density, reduction vs DMSO (hiPSC-neurons [4]; 10 μM, 7 days, Fig. 3B): 30%
- Synapses/Neurite Length, reduction vs DMSO (hiPSC-neurons [4]; 10 μM, 7 days, Fig. 3C): 30%
- Synapse Density, percent difference between ARV treatment and DMSO control (hiPSC-neurons [4]; each ARV at 10 μM, 7 days): −10(NS) percent

Molecule: CCCc1cc(C)[nH]c(=O)c1CNC(=O)c1cc(-c2ccnc(N3CCN(C)CC3)c2)cc2c1cnn2C(C)C [GSK343]
- Samples classified correctly by discriminant analysis (hNPCs [6]; 10 μM): 100%
- hNPC viability, reduction vs DMSO (hNPCs [7]; 10 μM, three days): 50%

Molecule: O=C(CCCCCCC(=O)Nc1ccccc1)NO [SAHA]
- Samples classified correctly by discriminant analysis (hNPCs [6]; 3 μM): 100%
- hNPC viability, reduction vs DMSO (hNPCs [7]; 3 μM): 45%

Molecule: CC(C)OC(=O)OCOP(=O)(CO[C@H](C)Cn1cnc2c(N)ncnc21)OCOC(=O)OC(C)C [TDF, tenofovir disoproxil fumarate]
- Effect on epigenetic landscape (H3K27me3/H3K27ac and H3K9me3/H3K4me1 MIEL analysis) (hNPCs [6]; 10 μM, three days, Fig. 7B–E): altered the epigenetic landscape
- Neuronal Viability (percentage of live neuronal nuclei), reduction vs DMSO (hiPSC-neurons [1]; 10 μM, 7 days): 35%
- Total Neurite Length (per cm^2 image area), reduction vs DMSO (hiPSC-neurons [1]; 10 μM, 7 days): 20%
- Neuronal Viability, reduction vs DMSO (hiPSC-neurons [1]; each ARV at 10 μM, 7 days): 30%
- Neuronal Viability, change vs DMSO (hiPSC-neurons [1]; [8]): did not observe changes
- hNPC viability, reduction vs DMSO (hNPCs [7]; 10 μM, three days): 30%
- Mean Peak Amplitude, percent difference between ARV treatment and DMSO control (hiPSC-neurons [2]): +20(NS) percent
- Percent Active, percent difference between ARV treatment and DMSO control (hiPSC-neurons [2]): −10(NS) percent
- Number of active neurons with detectable increases in calcium fluorescence (hiPSC-neurons [2]): 729 cells
- Cmax [3]: 0.6 µM
- Viability of murine NPCs (murine NPCs): reduce the viability
- Synapses/Neurite Length, reduction vs DMSO (hiPSC-neurons [4]; 0.1 μM, 7 days, Fig. 3C): 20%
- Synapse Density, reduction vs DMSO (hiPSC-neurons [4]; 1 μM, 7 days, Fig. 3B): 30%
- Synapses/Neurite Length, reduction vs DMSO (hiPSC-neurons [4]; 1 μM, 7 days, Fig. 3C): 25%
- Synapse Density, reduction vs DMSO (hiPSC-neurons [4]; 10 μM, 7 days, Fig. 3B): 40%
- Synapses/Neurite Length, reduction vs DMSO (hiPSC-neurons [4]; 10 μM, 7 days, Fig. 3C): 20%

Molecule: O=C1Nc2ccc(Cl)cc2[C@@](C#CC2CC2)(C(F)(F)F)O1 [efavirenz]
- Inflammation in hiPSC-microglia (hiPSC-microglia): increased inflammation
- Phagocytosis in hiPSC-microglia (hiPSC-microglia): reduced phagocytosis

Molecule: C[C@@H]1CCN(C(=O)CC#N)C[C@@H]1N(C)c1ncnc2[nH]ccc12 [tofacitinib]
- hNPC viability, effect (hNPCs [7]; 1 μM): not affected

Molecule: Cc1cn([C@H]2C[C@H](N=[N+]=[N-])[C@@H](CO)O2)c(=O)[nH]c1=O [zidovidine]
- Viability of murine NPCs (murine NPCs): reduce the viability

Molecule: para-nitroblebbistatin
- Neurite length, effect (hiPSC-neurons [1]; [9]): did not affect
- Neuron viability, effect (hiPSC-neurons [1]; [9]): did not affect
- Total Neurite Length, increase vs DMSO (hiPSC-neurons [1]; 25 μM, one day, Fig. 2B): 15%
- Synapse Density, reduction vs DMSO (hiPSC-neurons [4]; 25 μM, 7 days, Fig. 3B): 30%
- Synapses/Neurite Length, reduction vs DMSO (hiPSC-neurons [4]; 25 μM, 7 days, Fig. 3C): 20%
- Synapse Density, increase vs DMSO (hiPSC-neurons [4]; 25 μM, one day, Fig. 4A): 20%
